One may read the IC50 as the concentration at which inhibition is half-maximal. A high value points to weaker potency in that assay.

This test deals with Signal transducer and activator of transcription 3 (Homo sapiens, UniProt P40763). The test can be described thus: Inhibition of STAT3 in human HeLa cells after 24 hrs by luciferase reporter gene assay. A general note: A reporter such as luciferase makes a cellular process visible.
Sequence of Signal transducer and activator of transcription 3 (P40763 whole entry): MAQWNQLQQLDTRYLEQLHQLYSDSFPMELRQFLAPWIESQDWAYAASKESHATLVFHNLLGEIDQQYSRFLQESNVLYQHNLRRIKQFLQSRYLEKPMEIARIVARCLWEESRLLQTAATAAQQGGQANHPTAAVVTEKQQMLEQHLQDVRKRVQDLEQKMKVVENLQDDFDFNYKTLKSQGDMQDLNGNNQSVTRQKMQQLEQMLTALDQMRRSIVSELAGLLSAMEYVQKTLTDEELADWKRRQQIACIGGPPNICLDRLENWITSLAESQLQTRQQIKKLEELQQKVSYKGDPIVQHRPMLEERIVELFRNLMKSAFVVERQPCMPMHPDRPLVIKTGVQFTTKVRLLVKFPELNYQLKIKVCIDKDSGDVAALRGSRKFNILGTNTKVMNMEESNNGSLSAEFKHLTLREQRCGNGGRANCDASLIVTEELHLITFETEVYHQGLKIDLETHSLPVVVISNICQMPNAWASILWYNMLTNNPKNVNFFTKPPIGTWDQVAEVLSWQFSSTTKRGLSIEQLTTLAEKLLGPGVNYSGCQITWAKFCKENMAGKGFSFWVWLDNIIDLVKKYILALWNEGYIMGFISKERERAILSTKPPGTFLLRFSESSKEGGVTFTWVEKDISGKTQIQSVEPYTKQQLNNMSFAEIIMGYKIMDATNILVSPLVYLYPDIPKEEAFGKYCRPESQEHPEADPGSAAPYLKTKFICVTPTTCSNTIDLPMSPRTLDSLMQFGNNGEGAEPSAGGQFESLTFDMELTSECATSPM

Turning to `O=C(Nc1ccc([N+](=O)[O-])cc1Cl)c1cc(Cl)ccc1O` [5-chloro-N-(2-chloro-4-nitrophenyl)-2-hydroxybenzamide], inhibition was half-maximal at 250 nM (IC50).
